Assay results reported in patent US6534523B1, “Hepatitis C inhibitor tri-peptides” (Boehringer Ingelheim (Canada) Ltd., priority 1998, dated 2003).

Target: T1, full length NS3-NS4A heterodimer protein (His-NS3-NS4AFL) (Hepatitis C virus genotype 1b, UniProt P26663)
T1 construct: The full length mature NS3 and NS4A heterodimer protein (His-NS3-NS4AFL) was expressed; made in house; host or cells: Sf21 insect cells, recombinant baculovirus
Experiment: Full-length NS3-NS4A heterodimer protein assay (Example 38)
Assay type: biochemical, HCV genotype 1b
Text: Full-length NS3-NS4A Heterodimer Protein Assay
The NS2-NS5B-3′ non coding region was cloned by RT-PCR into the pCR®3 vector (Invitrogen) using RNA extracted from the serum of an HCV genotype 1b infected individual (provided by Dr. Bernard Willems, Hôpital St-Luc, Montréal, Québec, Canada). The NS3-NS4A DNA region was then subcloned by PCR into the pFastBac™ HTa baculovirus expression vector (Gibco/BRL). The vector sequence includes a region encoding a 28-residue N-terminal sequence which contains a hexahistidine tag. The Bac-to-Bac™ baculovirus expression system (Gibco/BRL) was used to produce the recombinant baculovirus. The full length mature NS3 and NS4A heterodimer protein (His-NS3-NS4AFL) was expressed by infecting 10^6 Sf21 cells/mL with the recombinant baculovirus at a multiplicity of infection of 0.1-0.2 at 27° C. The infected culture was harvested 48 to 64 h later by centrifugation at 4° C. The cell pellet was homogenized in 50 mM NaPO4, pH 7.5, 40% glycerol (w/v), 2 mM β-mercaptoethanol, in presence of a cocktail of protease inhibitors. […] Fluorescence of the N-terminal product was monitored on a Perkin-Elmer LS-50B fluorometer equipped with a 96-well plate reader (excitation wavelength: 325 nm; emission wavelength: 423 nm).
The % inhibition was calculated with the following equation: […]

T1 sequence (P26663 1027-1657): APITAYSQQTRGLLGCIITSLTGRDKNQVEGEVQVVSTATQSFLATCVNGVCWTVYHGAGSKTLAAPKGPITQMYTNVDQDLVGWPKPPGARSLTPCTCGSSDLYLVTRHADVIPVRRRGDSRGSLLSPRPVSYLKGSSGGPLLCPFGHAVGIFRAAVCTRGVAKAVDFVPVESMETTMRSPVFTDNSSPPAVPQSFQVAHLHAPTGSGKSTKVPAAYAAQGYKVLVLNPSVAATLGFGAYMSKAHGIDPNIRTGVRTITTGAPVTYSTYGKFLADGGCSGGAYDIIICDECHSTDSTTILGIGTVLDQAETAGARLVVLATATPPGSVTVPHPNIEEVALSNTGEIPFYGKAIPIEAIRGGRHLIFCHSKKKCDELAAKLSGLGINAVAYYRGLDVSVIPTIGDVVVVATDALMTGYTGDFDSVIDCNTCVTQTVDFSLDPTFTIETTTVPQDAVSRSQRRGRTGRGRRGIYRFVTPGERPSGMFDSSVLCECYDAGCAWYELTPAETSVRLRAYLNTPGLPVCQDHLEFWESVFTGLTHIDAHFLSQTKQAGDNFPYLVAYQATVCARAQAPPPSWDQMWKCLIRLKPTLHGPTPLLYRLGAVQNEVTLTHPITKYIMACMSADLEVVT
T1 sequence (P26663 1658-1711): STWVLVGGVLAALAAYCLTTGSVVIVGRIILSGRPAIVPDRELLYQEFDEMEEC

**Q.** For `C=C[C@@H]1C[C@]1(NC(=O)[C@@H]1C[C@@H](Oc2cc(-c3ccccc3)nc3cc(OC)ccc23)CN1C(=O)[C@@H](NC(=O)OC(C)(C)C)C(C)C)C(=O)O` [compound 601], which IC50 is on record?
**A.** The IC50 was 30 nM.
